Patent publication US11878966B2, “Substituted 4-benzyl and 4-benzoyl piperidine derivates” (89BIO LTD, priority 2015, dated 2024)

Target: T1, recombinant human baculovirus-expressed GST-tagged FASN (Homo sapiens, UniProt P49327)
T1 construct: GST; host or cells: baculovirus expression system (insect cells implied)
Experiment: FASN enzyme activity assay: fluorescence-based detection of CoA with CPM
Format: biochemical
Details: 5 nM FASN, 150 μM NADPH, 10 μM acetyl-CoA, 25 μM malonyl-CoA, 90 minutes incubation
Summary of the method: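 GST-tagged human FASN (5 nM, baculovirus-expressed) in 50 mM HEPES pH 7.5 with 150 μM NADPH, 10 μM acetyl-CoA and 25 μM malonyl-CoA, 0.5% DMSO, started with malonyl-CoA and run 90 min. CoA was detected with CPM (30 min; ex 390/em 530 nm). IC50 came from sigmoidal variable-slope fits of % inhibition.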

T1 sequence (P49327 whole entry): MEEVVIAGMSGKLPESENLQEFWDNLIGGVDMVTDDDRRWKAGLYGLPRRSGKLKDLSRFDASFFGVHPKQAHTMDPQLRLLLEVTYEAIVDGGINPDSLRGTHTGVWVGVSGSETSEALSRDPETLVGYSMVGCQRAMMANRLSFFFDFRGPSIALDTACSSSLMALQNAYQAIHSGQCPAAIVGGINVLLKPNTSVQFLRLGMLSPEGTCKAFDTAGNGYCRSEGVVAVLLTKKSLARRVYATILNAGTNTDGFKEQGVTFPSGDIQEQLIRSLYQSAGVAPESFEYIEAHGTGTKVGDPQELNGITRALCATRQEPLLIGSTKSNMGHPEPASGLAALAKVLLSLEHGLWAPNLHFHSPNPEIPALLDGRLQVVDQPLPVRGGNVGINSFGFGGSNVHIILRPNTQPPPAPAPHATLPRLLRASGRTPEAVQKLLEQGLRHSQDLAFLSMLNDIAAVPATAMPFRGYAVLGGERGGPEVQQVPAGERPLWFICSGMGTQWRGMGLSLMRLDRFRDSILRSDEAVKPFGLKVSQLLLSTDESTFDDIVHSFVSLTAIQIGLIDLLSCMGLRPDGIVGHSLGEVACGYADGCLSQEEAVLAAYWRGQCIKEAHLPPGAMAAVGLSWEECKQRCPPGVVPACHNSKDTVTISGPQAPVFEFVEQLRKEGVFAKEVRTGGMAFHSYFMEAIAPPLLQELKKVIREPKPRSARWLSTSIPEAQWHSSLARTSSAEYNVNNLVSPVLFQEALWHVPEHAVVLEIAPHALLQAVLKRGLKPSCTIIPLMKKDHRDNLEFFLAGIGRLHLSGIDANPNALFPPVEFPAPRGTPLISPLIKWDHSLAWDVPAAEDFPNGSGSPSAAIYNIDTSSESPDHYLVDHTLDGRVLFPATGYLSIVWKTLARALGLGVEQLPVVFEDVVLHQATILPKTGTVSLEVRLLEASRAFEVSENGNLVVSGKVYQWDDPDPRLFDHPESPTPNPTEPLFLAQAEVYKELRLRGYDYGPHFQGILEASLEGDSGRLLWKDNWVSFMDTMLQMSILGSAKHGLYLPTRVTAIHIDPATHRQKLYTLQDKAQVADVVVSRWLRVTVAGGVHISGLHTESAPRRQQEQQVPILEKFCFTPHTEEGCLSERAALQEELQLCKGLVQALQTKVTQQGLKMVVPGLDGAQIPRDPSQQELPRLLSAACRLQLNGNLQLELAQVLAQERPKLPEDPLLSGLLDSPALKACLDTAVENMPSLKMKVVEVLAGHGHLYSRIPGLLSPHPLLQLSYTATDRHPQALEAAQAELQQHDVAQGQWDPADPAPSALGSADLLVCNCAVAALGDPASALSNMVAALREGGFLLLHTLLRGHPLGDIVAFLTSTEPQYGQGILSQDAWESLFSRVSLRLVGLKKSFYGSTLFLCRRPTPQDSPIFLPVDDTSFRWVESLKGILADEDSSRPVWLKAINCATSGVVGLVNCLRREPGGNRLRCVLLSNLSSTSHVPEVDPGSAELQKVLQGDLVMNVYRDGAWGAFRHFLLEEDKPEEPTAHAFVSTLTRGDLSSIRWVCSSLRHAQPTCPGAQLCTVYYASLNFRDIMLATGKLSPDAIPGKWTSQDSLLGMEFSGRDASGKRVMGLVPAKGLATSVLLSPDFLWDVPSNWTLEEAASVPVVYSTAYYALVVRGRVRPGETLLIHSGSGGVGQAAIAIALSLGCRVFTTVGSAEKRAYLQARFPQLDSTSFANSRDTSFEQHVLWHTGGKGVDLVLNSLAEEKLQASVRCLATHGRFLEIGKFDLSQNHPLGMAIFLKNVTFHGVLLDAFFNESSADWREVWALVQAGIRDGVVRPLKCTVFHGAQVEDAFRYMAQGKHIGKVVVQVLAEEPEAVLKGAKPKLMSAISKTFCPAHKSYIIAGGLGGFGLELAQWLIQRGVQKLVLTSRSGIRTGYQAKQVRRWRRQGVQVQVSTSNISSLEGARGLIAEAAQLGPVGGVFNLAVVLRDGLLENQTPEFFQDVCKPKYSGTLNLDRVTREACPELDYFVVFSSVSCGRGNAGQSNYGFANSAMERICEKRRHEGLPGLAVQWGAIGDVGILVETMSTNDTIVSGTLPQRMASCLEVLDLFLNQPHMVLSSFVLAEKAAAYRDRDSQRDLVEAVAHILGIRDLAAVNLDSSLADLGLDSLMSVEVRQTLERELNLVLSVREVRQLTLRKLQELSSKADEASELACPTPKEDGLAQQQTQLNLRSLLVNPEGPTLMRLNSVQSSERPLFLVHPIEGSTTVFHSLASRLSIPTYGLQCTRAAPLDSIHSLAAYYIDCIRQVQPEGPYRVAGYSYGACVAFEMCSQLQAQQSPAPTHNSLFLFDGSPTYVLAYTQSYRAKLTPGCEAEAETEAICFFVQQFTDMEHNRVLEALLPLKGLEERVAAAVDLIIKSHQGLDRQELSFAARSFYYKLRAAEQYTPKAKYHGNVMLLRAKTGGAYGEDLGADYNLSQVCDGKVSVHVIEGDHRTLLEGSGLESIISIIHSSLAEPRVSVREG

IC50 [µM] | Compound
0.001 to 0.099 | CCC(=O)N1CCC(C(=O)c2ccc(-c3cnc4ccccc4c3)cc2F)CC1 [Example 143, 1-[4-(2-Fluoro-4-quinolin-3-yl-benzoyl)piperidin-1-yl]propan-1-one]
0.001 to 0.099 | CC(c1ccc(-c2ccc3cccnc3c2)cc1)C1CCN(C(=O)[C@H]2CCCO2)CC1 (stereo partly drawn) [Example 51, {4-[1-(4-Quinolin-7-yl-phenyl)-ethyl]-piperidin-1-yl}-(R)-tetrahydrofuran-2-yl-methanone]
0.1 to 0.999 | O=C(C1CC1)N1CCC(C(F)(F)c2ccc(-c3cnc4ccccc4c3)cc2)CC1 [Example 17, Cyclopropyl-{4-[difluoro-(4-quinolin-3-yl-phenyl)-methyl]-piperidin-1-yl}-methanone]
0.1 to 0.999 | COC(C)(c1ccc(-c2ccc3cccnc3c2)cc1)C1CCN(C(=O)C2CC2)CC1 (stereo not drawn) [Example 213, Cyclopropyl-{4-[1-methoxy-1-(4-quinolin-7-yl-phenyl)-ethyl]-piperidin-1-yl}-methanone]
0.001 to 0.099 | Cc1c(-c2ccc(CC3(F)CCN(C(=O)C4CC4)CC3)cc2)ccc2cccnc12 [Example 183, Cyclopropyl(4-fluoro-4-(4-(8-methylquinolin-7-yl)benzyl)piperidin-1-yl)methanone]
1 to 10 | CCCC(=O)N1CCC(C2(c3ccc(-c4ccc5cccnc5c4)cc3)OCCO2)CC1 [Example 113, 1-{4-[2-(4-Quinolin-7-yl-phenyl)-1,3-dioxolan-2-yl]-piperidin-1-yl}-butan-1-one]
0.001 to 0.099 | Cc1c(-c2ccc(C(C)C3CCN(C(=O)[C@H]4CCCO4)CC3)cc2)ccc2cccnc12 (mixture of isomers) [Example 70, (4-{1-[4-(8-Methylquinolin-7-yl)-phenyl]-ethyl}-piperidin-1-yl)-(R)-tetrahydrofuran-2-yl-methanone]
1 to 10 | CCC(=O)N1CCC(C(=O)c2ccc(-c3ccc4cnccc4c3)cc2)C1 (stereo not drawn) [Example 133, 1-[3-(4-Isoquinolin-6-yl-benzoyl)-pyrrolidin-1-yl]-propan-1-one]
1 to 10 | O=C(N1CCC(C2(c3ccc(-c4ccc5ncccc5c4)cc3)OCCO2)CC1)C(F)(F)F [Example 98, 2,2,2-Trifluoro-1-{4-[2-(4-quinolin-6-yl-phenyl)-1,3-dioxolan-2-yl]-piperidin-1-yl}-ethanone]
0.1 to 0.999 | CC(C)(c1ccc(-c2cnc3ccccc3c2)cc1)C1CCN(C(=O)C2CC2)CC1 [Example 204, Cyclopropyl(4-(2-(4-(quinolin-3-yl)phenyl)propan-2-yl)piperidin-1-yl)methanone]
0.001 to 0.099 | Cc1c(-c2ccc(CC3(F)CCN(C(=O)C4CC4)CC3)cc2)cnc2ccccc12 [Example 191, Cyclopropyl(4-fluoro-4-(4-(4-methylquinolin-3-yl)benzyl)piperidin-1-yl)methanone]
0.001 to 0.099 | CCC(=O)N1CCC(F)(C(OCCN2CCOCC2)c2ccc(-c3ccc4cccnc4c3C)cc2)CC1 (stereo not drawn) [Example 227, 1-{4-Fluoro-4-[[4-(8-methyl-quinolin-7-yl)-phenyl]-(2-morpholin-4-yl-ethoxy)-methyl]-piperidin-1-yl}-propan-1-one]
0.001 to 0.099 | CCNC(=O)N1CCC(Cc2ccc(-c3ccc4cccnc4c3OC)cc2)CC1 [Example 230, N-ethyl-4-[[4-(8-methoxy-7-quinolyl)phenyl]methyl]piperidine-1-carboxamide]
0.001 to 0.099 | O=C([C@H]1CCCO1)N1CC=C(Cc2ccc(-c3cnc4ccccc4c3Cl)cc2)CC1 [Example 202, (R)-(4-(4-(4-chloroquinolin-3-yl)benzyl)-3,6-dihydropyridin-1(2H)-yl)(tetrahydrofuran-2-yl)methanone]
0.001 to 0.099 | O=C([C@H]1CCCO1)N1CCC(F)(Cc2ccc(-c3cnc4ccccc4c3Cl)cc2)CC1 [Example 201, (R)-(4-(4-(4-chloroquinolin-3-yl)benzyl)-4-fluoropiperidin-1-yl)(tetrahydrofuran-2-yl)methanone]
0.001 to 0.099 | CCC(=O)N1CCC(Cc2ccc(-c3cnc4ccccc4c3)cc2)CC1 [Example 1, 1-[4-(4-Quinolin-3-yl-benzyl)-piperidin-1-yl]-propan-1-one]
1 to 10 | CC(=O)N1CCC(C2(c3ccc(-c4ccc5ncccc5c4)cc3)OCCO2)CC1 [Example 106, 1-{4-[2-(4-Quinolin-6-yl-phenyl)-1,3-dioxolan-2-yl]-piperidin-1-yl}-ethanone]
1 to 10 | CC(C)C(=O)N1CCC(C2(c3ccc(-c4ccc5cccnc5c4)cc3)OCCO2)CC1 [Example 111, 2-Methyl-1-{4-[2-(4-quinolin-7-yl-phenyl)-1,3-dioxolan-2-yl]-piperidin-1-yl}-propan-1-one]
1 to 10 | CCC(=O)N1CCC(F)(C(=O)c2ccc(-c3ccc4cccnc4c3C)cc2)CC1 [Example 222, 1-{4-Fluoro-4-[4-(8-methylquinolin-7-yl)-benzoyl]-piperidin-1-yl}-propan-1-one]
0.1 to 0.999 | CCC(=O)N1CCC(C)(C(=O)c2ccc(-c3cnc4ccccc4c3)cc2)CC1 [Example 56, 1-[4-Methyl-4-(4-quinolin-3-yl-benzoyl)-piperidin-1-yl]-propan-1-one]

IC50 [µM] | Compound
0.001 to 0.099 | O=C([C@H]1CCCO1)N1CCC(Cc2ccc(-c3cnc4ccccc4c3Cl)cc2)CC1 [Example 22, {4-[4-(4-Chloroquinolin-3-yl)-benzyl]-piperidin-1-yl}-(R)-tetrahydrofuran-2-yl-methanone]
1 to 10 | Cc1c(-c2ccc(CC3CCN(C(=O)C4CC(F)(F)C4)CC3)cc2)cnc2ccccc12 [Example 14, (3,3-Difluorocyclobutyl)-{4-[4-(4-methylquinolin-3-yl)-benzyl]-piperidin-1-yl}-methanone]
1 to 10 | CC(C)C(=O)N1CCC(C2(c3ccc(-c4ccc5ccncc5c4)cc3)OCCO2)CC1 [Example 117, 1-{4-[2-(4-Isoquinolin-7-yl-phenyl)-1,3-dioxolan-2-yl]-piperidin-1-yl}-2-methyl-propan-1-one]
0.001 to 0.099 | Cc1c(-c2ccc(CC3CCN(C(=O)[C@H]4CCCO4)CC3)cc2)ccc2cccnc12 [Example 25, {4-[4-(8-Methylquinolin-7-yl)-benzyl]-piperidin-1-yl}-(R)-tetrahydrofuran-2-yl-methanone]
0.1 to 0.999 | Cc1nccc2cc(-c3ccc(C(OCCN4CCCC4)C4CCN(C(=O)[C@H]5CCCO5)CC4)cc3)ccc12 (stereo partly drawn) [Example 90, {4-[[4-(1-Methylisoquinolin-6-yl)phenyl]-(2-pyrrolidin-1-yl-ethoxy)-methyl]-piperidin-1-yl}-(R)-tetrahydrofuran-2-yl-methanone]
0.001 to 0.099 | CCC(=O)N1CC=C(Cc2ccc(-c3cnc4ccccc4c3)cc2)CC1 [Example 162, 1-(4-(4-(quinolin-3-yl)benzyl)-5,6-dihydropyridin-1(2H)-yl)propan-1-one]
0.001 to 0.099 | CCC(=O)N1CCC(C(C)c2ccc(-c3cnc4ccccc4c3)cc2)CC1 (single isomer, unassigned) [Example 67, 1-{4-[1-(4-Quinolin-3-yl-phenyl)-ethyl]-piperidin-1-yl}-propan-1-one]
1 to 10 | CCC(=O)N1CCC(C(C)(O)c2ccc(-c3ccc4cnccc4c3)cc2)C1 (stereo not drawn) [Example 134, 1-{3-[1-Hydroxy-1-(4-isoquinolin-6-yl-phenyl)-ethyl]-pyrrolidin-1-yl}-propan-1-one]
0.001 to 0.099 | CCC(=O)N1CCC(F)(C(O)c2ccc(-c3ccc4cccnc4c3C)cc2)CC1 (stereo not drawn) [Example 223]
0.001 to 0.099 | CCC(=O)N1CCC(C(C)c2ccc(-c3cnc4ccccc4c3C)cc2)CC1 (stereo not drawn) [Example 65, 1-(4-{1-[4-(4-Methylquinolin-3-yl)-phenyl]-ethyl}-piperidin-1-yl)-propan-1-one]
0.001 to 0.099 | CCC(=O)N1CCC(C(OCCCN2CCOCC2)c2ccc(-c3ccc4cccnc4c3C)cc2)CC1 (stereo not drawn) [Example 85, 1-{4-[[4-(8-Methylquinolin-7-yl)-phenyl]-(3-morpholin-4-yl-propoxy)-methyl]-piperidin-1-yl}-propan-1-one]
0.001 to 0.099 | Cc1c(-c2ccc(C(F)(F)C3CCN(C(=O)[C@H]4CCCO4)CC3)cc2)cnc2ccccc12 [Example 11, (4-{Difluoro-[4-(4-methylquinolin-3-yl)-phenyl]-methyl}-piperidin-1-yl)-(R)-tetrahydrofuran-2-yl-methanone]
0.001 to 0.099 | Cc1c(-c2ccc(CC3=CCN(C(=O)[C@H]4CCCO4)CC3)cc2)cnc2ccccc12 [Example 182, (R)-(4-(4-(4-methylquinolin-3-yl)benzyl)-5,6-dihydropyridin-1(2H)-yl)(tetrahydrofuran-2-yl)methanone]
0.001 to 0.099 | CCC(=O)N1CCC(C2(c3ccc(-c4cnc5ccccc5c4)cc3)OCCO2)CC1 [Example 139, 1-{4-[2-(4-Quinolin-3-yl-phenyl)-1,3-dioxolan-2-yl]-piperidin-1-yl}-propan-1-one]
0.1 to 0.999 | CCOC(C)(c1ccc(-c2cnc3ccccc3c2)cc1)C1CCN(C(=O)CC)CC1 (stereo not drawn) [Example 206, 1-{4-[1-Ethoxy-1-(4-quinolin-3-yl-phenyl)-ethyl]-piperidin-1-yl}-propan-1-one]
0.001 to 0.099 | CCCC(c1ccc(-c2cnc3ccccc3c2)cc1)C1CCN(C(=O)CC)CC1 (stereo not drawn) [Example 54, 1-{4-[1-(4-Quinolin-3-yl-phenyl)-butyl]-piperidin-1-yl}-propan-1-one]
1 to 10 | c1cnc2ccc(-c3ccc(C4(C5CCN(C6CCOCC6)CC5)OCCO4)cc3)cc2c1 [Example 108, 6-(4-{2-[1-(Tetrahydropyran-4-yl)-piperidin-4-yl]-1,3-dioxolan-2-yl}-phenyl)-quinoline]
0.001 to 0.099 | CONC(=O)N1CCC(Cc2ccc(-c3ccc4cccnc4c3C)cc2)CC1 [Example 231, N-methoxy-4-[[4-(8-methyl-7-quinolyl)phenyl]methyl]piperidine-1-carboxamide]
0.001 to 0.099 | CCC(=O)N1CCC(/C(=N\OC)c2ccc(-c3cnc4ccccc4c3)cc2)CC1 [Example 46, 1-{4-[[(E:Z)-Methoxyimino]-(4-quinolin-3-yl-phenyl)-methyl]-piperidin-1-yl}-propan-1-one]
